Where “and” joins values, the source holds several entries; their conditions need not be identical. Equal entries are not always repeated. After the bases stand the sugars from the 5' end (letter, count) and the backbone: PS all phosphorothioate, else s phosphorothioate and o phosphodiester by linkage. Methylation of C is not given here. e = 2'-O-(2-methoxyethyl) (MOE); k = constrained ethyl (cEt); d = 2'-deoxy (DNA)
Target: KRAS
Conditions: ASO

Sequence | target mRNA inhibition (A431, 2 µM) | also measured
TGTTTATGCAATGTTA (sugars k3 d9 k3 e1, PS) | 72% | target mRNA inhibition (A431, 0.185 µM): 43%; target mRNA inhibition (A431, 0.556 µM): 57%; target mRNA inhibition (A431, 1.667 µM): 78%; target mRNA inhibition (A431, 5 µM): 90%; target mRNA inhibition (NCI-H460, 0.037 µM): 65.6%
ATGTAGGGCATTTCTG (sugars k3 d10 k3, PS) | 9% | –
GTTTCACATAGCAATT (sugars k3 d10 k3, PS) | 29% | –
TAATTAATCCATTTAT (sugars k3 d10 k3, PS) | 0% | –
TGCTGTGAAACTCTCT (sugars k3 d9 k3 e1, PS) | 23% | –
AGATTGTGCTGAGCTT (sugars kkdddddddddkekek, PS) | 38% | –
TTCATTGTTTAAAAAA (sugars k3 d10 k3, PS) | 6% | –
ACAAATGCTAATAATT (sugars k3 d10 k3, PS) | 1% | –
TCCAGTGATACTTTCA (sugars kkdddddddddkdkdk, PS) | 35% | –
CAACTGCATGCACCAA (sugars k3 d10 k3, PS) | 31% | –
CAGTGTGACTCAGTTA (sugars kkkddddddddkekek, PS) | 63% | target mRNA inhibition (A431, 0.185 µM): 28%; target mRNA inhibition (A431, 0.556 µM): 24%; target mRNA inhibition (A431, 1.667 µM): 46%; target mRNA inhibition (A431, 5 µM): 71%
ATGGTGTAACATAGGT (sugars kkddddddddkekekk, PS) | 40% | –
TAGTGATTAGGTCAAA (sugars kkddddddddddkeke, PS) | 34% | –
CTGTAGTTTCACATAG (sugars k3 d10 k3, PS) | 25% | –
GTGTTTATGCAATGTT (sugars kkddddddddkekekk, PS) | 9% | –
CTTGTTGAGCTATCCA (sugars k3 d10 k3, PS) | 63% | –
GGAGTCTTTATAGTAA (sugars kkdddddddddkdkdk, PS) | 29% | –
AGTGTGACTCAGTTAA (sugars k3 d10 k3, PS) | 53% | –
AGATTGTGCTGAGCTT (sugars kkddddddddkekekk, PS) | 0% | –
CAGATTGTGCTGAGCT (sugars k3 d10 k3, PS) | 29% | –
TTAGTGATTAGGTCAA (sugars kkddddddddkekekk, PS) | 33% | –
GTTGAGCTATCCAAAC (sugars k3 d10 k3, PS) | 2% | –
AGTCTATTTCAGGCGG (sugars k3 d10 k3, PS) | – | target mRNA inhibition (A431, 5 µM): 50%
GCATGTAAATATAGCC (sugars k3 d10 k3, PS) | 11% | –
ATGGTGTAACATAGGT (sugars k3 d10 k3, PS) | 59% and 47% and 52% | target mRNA inhibition (A431, 0.185 µM): 17%; target mRNA inhibition (A431, 0.556 µM): 36%; target mRNA inhibition (A431, 1.667 µM): 59%; target mRNA inhibition (A431, 5 µM): 75%
ACTTGTACTAGTATGC (sugars k3 d10 k3, PS) | 51% | –
TTAATCCATTTATGTG (sugars k3 d10 k3, PS) | 34% | –
CTTGATTTGTCAGCAG (sugars kkkddddddddkekek, PS) | 41% | –
ATGGTGTAACATAGGT (sugars kddddddddddkekek, PS) | 47% | –
TGATTTGTCAGCAGGA (sugars kkddddddddddkeke, PS) | 55% | target mRNA inhibition (A431, 0.185 µM): 31%; target mRNA inhibition (A431, 0.556 µM): 48%; target mRNA inhibition (A431, 1.667 µM): 67%; target mRNA inhibition (A431, 5 µM): 8%

— the OligoGym collection
